Reference: paper PMC7699461, “Alpha-Glucosidase and Alpha-Amylase Inhibitory Activities, Molecular Docking, and Antioxidant Capacities of Salvia aurita Constituents” (Antioxidants, 2020)

Tests used:
[1] = Ferric-ion reducing antioxidant power (FRAP) assay; conditions: ascorbic acid equivalent; mean ± SD of triplicate
Description: The FRAP assay was assessed according to the method of Benzie and Strain (1996). FRAP reagent containing the mixture of acetate buffer (300 mM, pH 3.6), tripyridyl triazine (TPTZ) (10 mM in 40 mM HCl), and 20 mM FeCl3.6H2O in ratio 10:1:1 (v/v/v) was used. Extract, compounds, or standard (10 µL) was added to 300 µL FRAP reagent, incubated for 30 min in the dark at room temperature. The reacting mixture was read at a wavelength of 593 nm in a multiplate reader. Ascorbic acid was used as standard at varying concentrations of 0 to 1000 µM. The result was presented as a mean of independent triplicate experiments and expressed as µM ascorbic acid equivalents per milligram dry weight (µM AAE/g) of the test samples.

[2] = Trolox equivalent absorbance capacity (TEAC) assay; conditions: mean ± SD of triplicate
Description: The TEAC assay was evaluated following the method of Pellegrini et al. (1999). The working solution containing 88 µL of K2S2O8 (140 mM) and 5 mL ABTS (7 mM) was kept for at least 16 h in the dark at 25 °C. The working solution was then diluted after 16 h with ethanol until the absorbance read approximately 2.0 (±0.1). The extract, purified compounds, or standard (25 µL) was mixed with 300 µL working solution and allowed to incubate in the dark for 30 min at room temperature. Trolox was used as the standard using a concentration range between 0 and 500 µM. The absorbance of the reaction was read at a wavelength of 734 nm using a multiplate reader.

[3] = Oxygen radical absorbance capacity (ORAC) assay; conditions: Trolox equivalent; mean ± SD of triplicate
Excerpt: The method of Cao and Prior (1998) was employed to measure oxygen radical absorbance capacity (ORAC) and as reported in our previous study. The method measures the scavenging potential of compounds against the decomposition of peroxyl radical of 2,2-azobis (2-amino-propane) dihydrochloride (AAPH) as peroxyradical (ORAC ROO^•). The antioxidant capacity of a compound is a measure of the fading fluorescence of a probe (fluorescein) using the area under the curve (AUC) plot in relation to a control blank. The florescence of the probe was programmed to be measured at every two minutes for 2 h after the addition of AAPH at the excitation wavelength and emission set at 485 and 530 nm, respectively. The ORAC results were estimated following a regression equation (Y = a + bX + Cx^2) between Trolox concentration (Y in μM) and the net area under the fluorescence decay curve (X). ORAC values were expressed as μM Trolox equivalent (TE)/mg of test sample.

[4] = biological target: T1, alpha-glucosidase (Saccharomyces cerevisiae) (Saccharomyces cerevisiae, UniProt P53341); assay: biochemical
T1 construct: purchased Sigma-Aldrich, Cape Town, South Africa
Excerpt: (§1) EGCG (epigallocatechin gallate), Trolox (6-hydroxyl-2,5,7,8-tetramethylchroman-2-carboxylic acid), and other reagents such as TPTZ (2,4,6-tri[2-pyridyl]-s-triazine, iron (III) chloride hexahydrate, ABTS (2,2-azino-bis (3-ethylbenzo thiazoline-6-sulfonic acid) diammonium salt), AAPH (2,2-Azobis (2-methylpropionamidine) dihydrochloride), fluorescein sodium salt, potassium peroxodisulfate, copper sulfate, hydrogen peroxide, perchloric acid, alpha-glucosidase (Saccharomyces cerevisiae), alpha-amylase ([…]), and 3,5,di-nitro salicylic acid (DNS), sodium carbonate (Na2CO3), 4-nitro-phenyl-α-D-glucopyranoside (pNPG), di-sodium hydrogen phosphate, and sodium dihydrogen phosphate purchased from Sigma-Aldrich, Cape Town, South Africa. The organic solvents used in this study were supplied by Merck, Cape Town, South Africa. The NMR spectra were carried out on an Avance 400 MHz spectrometer (Bruker, Rheinstetten, Germany) using deuterated chloroform. Preparative HPLC was utilized for the purification of compounds using HPLC-grade methanol and distilled water.
Briefly, 20 μL of 5 mM substrate ([…]) was added to each well and left to incubate for 20 min at 37 °C. The reacting mixture was stopped after incubation by adding 0.1 M sodium carbonate (50 μL). The release of p-nitrophenol of the reacting mixture relating to the activity of the enzyme was read at a wavelength of 405 nm using a multiplate reader (Multiskan, Thermo Scientific).
All the measurements were repeated three times, and the IC50 was calculated using GraphPad Prism 5 version 5.01 (Graph pad software, Inc., La Jolla, CA, USA) statistical software. The data presented are means ± SD obtained from 96-well-plate readers for all in vitro experiments.

[5] = biological target: T2, alpha-amylase (procaine pancreas) (Sus scrofa, UniProt P00690); assay: Alpha-amylase inhibitory activity (starch/DNS); format: biochemical; conditions: mean ± SD, n = 3; samples 100–31.2 μg/mL; NA: not active within the evaluated concentrations
T2 construct: purchased Sigma-Aldrich, Cape Town, South Africa
T2 sequence (P00690 16-511): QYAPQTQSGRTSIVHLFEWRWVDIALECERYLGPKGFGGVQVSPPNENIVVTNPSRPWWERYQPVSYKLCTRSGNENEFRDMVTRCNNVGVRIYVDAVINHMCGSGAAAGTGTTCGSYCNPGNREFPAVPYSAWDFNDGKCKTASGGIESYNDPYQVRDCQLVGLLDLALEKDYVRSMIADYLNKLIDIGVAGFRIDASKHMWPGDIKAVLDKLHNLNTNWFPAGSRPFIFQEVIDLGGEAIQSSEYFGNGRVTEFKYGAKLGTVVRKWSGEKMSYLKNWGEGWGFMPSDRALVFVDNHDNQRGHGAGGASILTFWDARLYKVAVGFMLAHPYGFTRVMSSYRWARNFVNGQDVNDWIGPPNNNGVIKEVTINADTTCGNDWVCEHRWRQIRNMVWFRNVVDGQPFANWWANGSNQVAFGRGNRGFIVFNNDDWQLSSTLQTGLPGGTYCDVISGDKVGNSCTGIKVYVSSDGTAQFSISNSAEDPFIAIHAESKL
Excerpt: as §1
The mixture was allowed to incubate for 20 min at 37 °C before the addition of 1% soluble starch (10 μL) and further incubated for another 30 min. A color reagent DNS (100 μL) was added and boiled at 95 °C for 15 min. The change in color was read at a wavelength of […] using a multiplate reader.
The data presented are means ± SD obtained from 96-well-plate readers for all in vitro experiments.

[6] = biological target: rat liver diacylglycerol acyltransferase 1 (DGAT1); parameters: method as in PMID 28034282; conditions: read-out: IC50 against rat liver DGAT1; cited from earlier work
[7] = test system: intracellular de novo triglyceride synthesis; parameters: method as in PMID 28034282; conditions: without affecting cell viability; cited from earlier work

T1 sequence (P53341 whole entry): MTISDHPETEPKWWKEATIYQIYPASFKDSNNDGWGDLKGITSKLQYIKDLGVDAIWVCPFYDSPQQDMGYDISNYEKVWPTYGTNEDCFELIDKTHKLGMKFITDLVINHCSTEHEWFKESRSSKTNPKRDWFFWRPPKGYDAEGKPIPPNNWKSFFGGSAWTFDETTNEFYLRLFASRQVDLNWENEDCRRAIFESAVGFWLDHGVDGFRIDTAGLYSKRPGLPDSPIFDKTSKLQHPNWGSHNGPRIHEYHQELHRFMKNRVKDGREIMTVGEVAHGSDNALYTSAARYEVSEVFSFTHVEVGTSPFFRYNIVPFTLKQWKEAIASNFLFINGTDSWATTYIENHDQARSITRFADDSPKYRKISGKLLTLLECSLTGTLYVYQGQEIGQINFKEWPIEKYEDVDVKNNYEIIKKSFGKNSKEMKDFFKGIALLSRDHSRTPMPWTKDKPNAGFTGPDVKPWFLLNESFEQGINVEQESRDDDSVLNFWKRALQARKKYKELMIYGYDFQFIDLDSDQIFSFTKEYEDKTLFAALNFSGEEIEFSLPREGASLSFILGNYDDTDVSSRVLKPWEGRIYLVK

| SMILES | FRAP [1] [mM AAE/g] | TEAC [2] [mM TE/g] | ORAC [3] [mM TE/g] | IC50 [4] [µM] | IC50 [5] [µM] | IC50 [6] [µM] | deactivation of intracellular de novo triglyceride synthesis [7] |
| --- | --- | --- | --- | --- | --- | --- | --- |
| COc1ccc(-c2cc(=O)c3c(O)cc(OC)cc3o2)cc1 [4,7-dimethylapigenin ether, 4,7-dimethylapigenin] | 0.61 ± 0.006 | 3.19 ± 0.003 | 6.47 ± 0.01 | 96.2 | – | – | – |
| COc1c(C(C)C)cc2c(c1O)[C@@]1(C(=O)O)CCCC(C)(C)[C@@H]1CC2 [12-methoxycarnosic acid] | 0.51 ± 0.003 | 0.34 ± 0.003 | 20.25 ± 0.01 | 107 | 46.8 | – | – |
| CC(C)c1cc2c(c(O)c1O)[C@@]13CCCC(C)(C)[C@@H]1C[C@@H]2OC3=O [Carnosol, carnosol] | 3.92 ± 0.002 | 0.33 ± 0.002 | 23.96 ± 0.01 | 157 | 59.9 | 62.5 | 67.5–90.6% |
| O=C(O[C@@H]1Cc2c(O)cc(O)cc2O[C@@H]1c1cc(O)c(O)c(O)c1)c1cc(O)c(O)c(O)c1 [EGCG, epigallocatechin gallate, reference compound] | 7.53 ± 0.005 | 4.15 ± 0.02 | 3.98 ± 0.00 | – | – | – | – |
| CC(C)c1cc2c(c(O)c1O)[C@@]13CCCC(C)(C)[C@@H]1[C@H](OC3=O)[C@H]2O [Rosmanol, rosmanol] | 1.52 ± 0.002 | 2.06 ± 0.003 | 25.79 ± 0.01 | 47.3 | 118 | – | – |
